Test results: ChEMBL document CHEMBL1201862, “PubChem BioAssay data set” (2004)
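Cells were grown in 96-well plates and exposed to each compound for 48 hours at five concentrations; endpoints were interpolated linearly between bracketing concentrations, or set to the highest concentration if not reached. GI50 is the concentration that inhibits growth by half.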 Calls of active or inactive are those of the source. No stated cut-off is given here; in the data, active = GI50 up to about 1.1 µM and inactive = higher.

Key:
Test in all cases: DTP human tumour cell line panel, 48 h
[1] = test system: 786-0
[2] = test system: A549
[3] = test system: ACHN
[4] = test system: CAKI-1
[5] = test system: CCRF-CEM
[6] = test system: COLO 205
[7] = test system: DLD-1
[8] = test system: DMS-273
[9] = test system: EKVX
[10] = test system: HCC 2998
[11] = test system: HCT-116
[12] = test system: HOP-92
[13] = test system: HT-29
[14] = test system: IGROV-1
[15] = test system: K562
[16] = test system: KM12
[17] = test system: LOX IMVI
[18] = test system: LXFL 529
[19] = test system: M14
[20] = test system: M19-MEL
[21] = test system: MOLT-4
[22] = test system: Malme-3M
[23] = test system: NCI-H226
[24] = test system: NCI-H23
[25] = test system: NCI-H460
[26] = test system: NCI-H522
[27] = test system: OVCAR-3
[28] = test system: OVCAR-4
[29] = test system: OVCAR-5
[30] = test system: OVCAR-8
[31] = test system: RXF 393
[32] = test system: SF-268
[33] = test system: SF-295
[34] = test system: SF-539
[35] = test system: SK-MEL-28
[36] = test system: SK-MEL-2
[37] = test system: SK-MEL-5
[38] = test system: SK-OV-3
[39] = test system: SN12C
[40] = test system: SNB-19
[41] = test system: SNB-75
[42] = test system: SNB-78
[43] = test system: SR
[44] = test system: SW-620
[45] = test system: TK-10
[46] = test system: U-251
[47] = test system: UACC-62
[48] = test system: UO-31
[49] = test system: DMS-114
[50] = test system: HCT-15
[51] = test system: HOP-18
[52] = test system: HOP-62
[53] = test system: RPMI-8226
[54] = test system: UACC-257
[55] = test system: KM-20L2

CNC(=S)N/N=C1\CC(c2ccccc2)Oc2ccccc21 (centres undefined)
GI50 [1]: > 100 µM (inactive)
GI50 [2]: > 100 µM (inactive)
GI50 [3]: > 100 µM (inactive)
GI50 [4]: > 100 µM (inactive)
GI50 [5]: > 100 µM (inactive)
GI50 [6]: > 100 µM (inactive)
GI50 [7]: > 100 µM (inactive)
GI50 [8]: > 100 µM (inactive)
GI50 [9]: > 100 µM (inactive)
GI50 [10]: > 100 µM (inactive)
GI50 [11]: > 100 µM (inactive)
GI50 [12]: 18.3 µM (inactive)
GI50 [13]: > 100 µM (inactive)
GI50 [14]: > 100 µM (inactive)
GI50 [15]: > 100 µM (inactive)
GI50 [16]: > 100 µM (inactive)
GI50 [17]: > 100 µM (inactive)
GI50 [18]: > 100 µM (inactive)
GI50 [19]: > 100 µM (inactive)
GI50 [20]: 91.8 µM (inactive)
GI50 [21]: > 100 µM (inactive)
GI50 [22]: > 100 µM (inactive)
GI50 [23]: 43.7 µM (inactive)
GI50 [24]: > 100 µM (inactive)
GI50 [25]: > 100 µM (inactive)
GI50 [26]: > 100 µM (inactive)
GI50 [27]: 34.8 µM (inactive)
GI50 [28]: 18.6 µM (inactive)
GI50 [29]: > 100 µM (inactive)
GI50 [30]: > 100 µM (inactive)
GI50 [31]: > 100 µM (inactive)
GI50 [32]: > 100 µM (inactive)
GI50 [33]: > 100 µM (inactive)
GI50 [34]: > 100 µM (inactive)
GI50 [35]: > 100 µM (inactive)
GI50 [36]: > 100 µM (inactive)
GI50 [37]: 88.5 µM (inactive)
GI50 [38]: > 100 µM (inactive)
GI50 [39]: > 100 µM (inactive)
GI50 [40]: > 100 µM (inactive)
GI50 [41]: > 100 µM (inactive)
GI50 [42]: > 100 µM (inactive)
GI50 [43]: > 100 µM (inactive)
GI50 [44]: > 100 µM (inactive)
GI50 [45]: > 100 µM (inactive)
GI50 [46]: > 100 µM (inactive)
GI50 [47]: > 100 µM (inactive)
GI50 [48]: 8.11 µM (inactive)

O=C1[C@H]2C(c3ccccc3)=NN(C(=O)c3ccccc3)[C@H]2C(=O)N1c1ccccc1
GI50 [1]: > 100 µM (inactive)
GI50 [2]: > 100 µM (inactive)
GI50 [3]: > 100 µM (inactive)
GI50 [5]: > 100 µM (inactive)
GI50 [6]: > 100 µM (inactive)
GI50 [7]: > 100 µM (inactive)
GI50 [49]: > 100 µM (inactive)
GI50 [8]: > 100 µM (inactive)
GI50 [9]: > 100 µM (inactive)
GI50 [11]: > 100 µM (inactive)
GI50 [50]: > 100 µM
GI50 [51]: 68.4 µM (inactive)
GI50 [52]: > 100 µM (inactive)
GI50 [13]: > 100 µM (inactive)
GI50 [14]: > 100 µM (inactive)
GI50 [15]: > 100 µM (inactive)
GI50 [16]: > 100 µM (inactive)
GI50 [17]: > 100 µM (inactive)
GI50 [19]: > 100 µM (inactive)
GI50 [21]: > 100 µM (inactive)
GI50 [22]: > 100 µM (inactive)
GI50 [23]: > 100 µM (inactive)
GI50 [24]: > 100 µM (inactive)
GI50 [25]: > 100 µM (inactive)
GI50 [26]: > 100 µM (inactive)
GI50 [27]: > 100 µM (inactive)
GI50 [30]: > 100 µM (inactive)
GI50 [53]: > 100 µM (inactive)
GI50 [31]: > 100 µM (inactive)
GI50 [33]: > 100 µM (inactive)
GI50 [34]: > 100 µM (inactive)
GI50 [35]: > 100 µM (inactive)
GI50 [36]: > 100 µM (inactive)
GI50 [38]: > 100 µM (inactive)
GI50 [39]: > 100 µM (inactive)
GI50 [40]: > 100 µM (inactive)
GI50 [41]: > 100 µM (inactive)
GI50 [44]: > 100 µM (inactive)
GI50 [45]: > 100 µM (inactive)
GI50 [46]: > 100 µM (inactive)
GI50 [54]: > 100 µM (inactive)
GI50 [47]: > 100 µM (inactive)
GI50 [48]: > 100 µM (inactive)

C/C(=N\NC(=O)c1cccnc1)c1cccc(/C(C)=N/NC(=O)c2cccnc2)n1.CC(=O)[O-].CC(=O)[O-].[Zn+2]
GI50 [1]: 4.43 µM (inactive)
GI50 [2]: 3.91 µM (inactive)
GI50 [3]: 1.52 µM (inactive)
GI50 [4]: 2.64 µM (inactive)
GI50 [7]: 1.68 µM (inactive)
GI50 [9]: 2.86 µM (inactive)
GI50 [50]: 2.26 µM
GI50 [52]: 1.45 µM (inactive)
GI50 [55]: 1.67 µM (inactive)
GI50 [16]: 3.3 µM (inactive)
GI50 [17]: 1.62 µM (inactive)
GI50 [19]: 4.46 µM (inactive)
GI50 [20]: 8.45 µM (inactive)
GI50 [23]: 2.31 µM (inactive)
GI50 [24]: 4.01 µM (inactive)
GI50 [25]: 4.31 µM (inactive)
GI50 [28]: 0.504 µM (active)
GI50 [29]: 4.13 µM (inactive)
GI50 [30]: 1.62 µM (inactive)
GI50 [53]: 6.21 µM (inactive)
GI50 [31]: 3.01 µM (inactive)
GI50 [32]: 0.668 µM (active)
GI50 [33]: 2.74 µM (inactive)
GI50 [34]: 1.57 µM (inactive)
GI50 [38]: 2.22 µM (inactive)
GI50 [39]: 4.9 µM (inactive)
GI50 [40]: 2.86 µM (inactive)
GI50 [44]: 3.54 µM (inactive)
GI50 [45]: 5.65 µM (inactive)
GI50 [46]: 1.03 µM (active)
GI50 [54]: 5.41 µM (inactive)
GI50 [47]: 2.25 µM (inactive)
GI50 [48]: 2.72 µM (inactive)
